# From the supplement of paper PMC11208160
# Assay: recombinant UMI read abundance after kanamycin selection (control-corrected) (log10(CPM+1)); higher = more efficient recombination; extreme values may be limits of the assay; sequences stand for … in AGTGCAGAGAAAATCGGCCAGTTTTCTCTGCCTGCAGTCCGCATGCCGTGGGACCCCTTGGGTTCTAACCTGTTGCCTAGATTTATGCAGCGGACTGCCTTTCTCCCAAAGTGATAAACCGG…AGGTTGGTTTCACT; site = the 11-nt donor
# Method in brief: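 Pooled Escherichia coli screen of donor and donor-binding-loop pairs for the IS621 bridge recombinase. Each pair sits with a 12-nt UMI on a plasmid carrying a promoterless kanamycin gene. The library was co-electroporated with a target plasmid encoding a fixed target and T7-inducible recombinase, then plated with IPTG (0.07 mM) plus kanamycin, or unselected, each in two replicates. Recombinant UMIs were PCR-amplified across the donor–target junction and sequenced. Counts became CPM, averaged over replicates, scaled by control-derived factors and reported as log10(CPM+1).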
row,Sequence,recombinant UMI read abundance (log10)
1,GGGGCACCATGGACCGGTTTTCCCGGTAATCCGTATTTGCA (site GGGGCTCCTTG),0
2,GGGGCACCATGGACCGGTTTTCCCGGTAATCCGTATTTGCA (site GGGGGACCTTG),0
3,GGGGCACCATGGACCGGTTTTCCCGGTAATCCGTATTTGCA (site GGGGTACCTTG),0
4,GGGGCACCATGGACCGGTTTTCCCGGTAATCCGTATTTGCA (site GGGTCACCTTG),0.0044
5,GGGGCACCATGGACCGGTTTTCCCGGTAATCCGTATTTGCA (site GGTGCACCTTG),0
6,GGGGCACCATGGACCGGTTTTCCCGGTAATCCGTATTTGCA (site GTGGCACCTTG),0.0102
7,GGGGCACCATGGACCGGTTTTCCCGGTAATCCGTATTTGCA (site TGGGCACCTTG),0.00982
8,GGGTCACCATGGACCGGTTTTCCCGGTAATCCGTATTTGCC (site GGGTCACCTGG),0
9,GGTAATCCATGGACCGGTTTTCCCGGTAATCCGTATTTGTT (site CGGAATCCTAA),0.0139
10,GGTAATCCATGGACCGGTTTTCCCGGTAATCCGTATTTGTT (site GGTAATCCTAA),0.518
11,GGTACACCATGGACCGGTTTTCCCGGTAATCCGTATTTGAC (site AGTACACCTGT),0
12,GGTACACCATGGACCGGTTTTCCCGGTAATCCGTATTTGAC (site CGTACACCTGT),0
13,GGTACACCATGGACCGGTTTTCCCGGTAATCCGTATTTGAC (site GGTACACCTGT),0
14,GGTACACCATGGACCGGTTTTCCCGGTAATCCGTATTTGAC (site TGTACACCTGT),0
15,GGTACCTCATGGACCGGTTTTCCCGGTAATCCGTATTTGAG (site GGTACCTCTCT),0.374
16,GGTACCTCATGGACCGGTTTTCCCGGTAATCCGTATTTGTT (site GGTACATCTAA),0.0159
17,GGTACCTCATGGACCGGTTTTCCCGGTAATCCGTATTTGTT (site GGTACCTCTAA),0.187
18,GGTACCTCATGGACCGGTTTTCCCGGTAATCCGTATTTGTT (site GGTACGTCTAA),0.014
19,GGTACCTCATGGACCGGTTTTCCCGGTAATCCGTATTTGTT (site GGTACTTCTAA),0.00378
20,GGTAGAACATGGACCGGTTTTCCCGGTAATCCGTATTTGGC (site GATAGAACTGC),0
21,GGTAGAACATGGACCGGTTTTCCCGGTAATCCGTATTTGGC (site GCTAGAACTGC),0
22,GGTAGAACATGGACCGGTTTTCCCGGTAATCCGTATTTGGC (site GGTAGAACTGC),0.973
23,GGTAGAACATGGACCGGTTTTCCCGGTAATCCGTATTTGGC (site GTTAGAACTGC),0

row,Sequence,recombinant UMI read abundance (log10)
1,GGTATACCATGGACCGGTTTTCCCGGTAATCCGTATTTGGT (site GGTATACCTAC),0.00474
2,GGTATTTCATGGACCGGTTTTCCCGGTAATCCGTATTTGCC (site GGTATTTCTGG),0
3,GGTCCACCATGGACCGGTTTTCCCGGTAATCCGTATTTGCT (site GGTCCACCTAG),0
4,GGTCGGACATGGACCGGTTTTCCCGGTAATCCGTATTTGCG (site GGTCGGACTCG),1.29
5,GGTCTGTCATGGACCGGTTTTCCCGGTAATCCGTATTTGAA (site GGTCTGTCTTT),0.0119
6,GGTCTTACATGGACCGGTTTTCCCGGTAATCCGTATTTGAG (site GGTCTTACTCT),0.0687
7,GGTGCACCATGGACCGGTTTTCCCGGTAATCCGTATTTGCA (site GGAGCACCTTG),0.00431
8,GGTGCACCATGGACCGGTTTTCCCGGTAATCCGTATTTGCA (site GGCGCACCTTG),0.0224
9,GGTGCACCATGGACCGGTTTTCCCGGTAATCCGTATTTGCA (site GGGGCACCTTG),0
10,GGTGCACCATGGACCGGTTTTCCCGGTAATCCGTATTTGCA (site GGTGCACCTTG),0
11,GGTGCGTCATGGACCGGTTTTCCCGGTAATCCGTATTTGTT (site GGTACGTCTAA),0.0157
12,GGTGCGTCATGGACCGGTTTTCCCGGTAATCCGTATTTGTT (site GGTCCGTCTAA),0.0208
13,GGTGCGTCATGGACCGGTTTTCCCGGTAATCCGTATTTGTT (site GGTGCGTCTAA),0.668
14,GGTGCGTCATGGACCGGTTTTCCCGGTAATCCGTATTTGTT (site GGTTCGTCTAA),0.0103
15,GGTGCTGCATGGACCGGTTTTCCCGGTAATCCGTATTTGCT (site GGTGCTGCTAG),1.53
16,GGTGTAGCATGGACCGGTTTTCCCGGTAATCCGTATTTGGT (site GGTGTAGCTAC),0.0948
17,GGTGTGACATGGACCGGTTTTCCCGGTAATCCGTATTTGTG (site GGTGTGACTCA),0.68
18,GGTGTGTCATGGACCGGTTTTCCCGGTAATCCGTATTTGTG (site GGTGTGTCTCA),1.16
19,GGTTAGACATGGACCGGTTTTCCCGGTAATCCGTATTTGCC (site GGATAGACTGG),1.17
20,GGTTAGACATGGACCGGTTTTCCCGGTAATCCGTATTTGCC (site GGCTAGACTGG),1.32
21,GGTTAGACATGGACCGGTTTTCCCGGTAATCCGTATTTGCC (site GGGTAGACTGG),1.27
22,GGTTAGACATGGACCGGTTTTCCCGGTAATCCGTATTTGCC (site GGTTAGACTGG),1.9
23,GGTTAGTCATGGACCGGTTTTCCCGGTAATCCGTATTTGCC (site GGTTAGTCTGG),2.06

row,Sequence,recombinant UMI read abundance (log10)
1,GGTTCAACATGGACCGGTTTTCCCGGTAATCCGTATTTGTA (site GGTACAACTTA),0.00935
2,GGTTCAACATGGACCGGTTTTCCCGGTAATCCGTATTTGTA (site GGTCCAACTTA),0.262
3,GGTTCAACATGGACCGGTTTTCCCGGTAATCCGTATTTGTA (site GGTGCAACTTA),0.00737
4,GGTTCAACATGGACCGGTTTTCCCGGTAATCCGTATTTGTA (site GGTTCAACTTA),0.00797
5,GGTTCATCATGGACCGGTTTTCCCGGTAATCCGTATTTGCC (site GGTTCATCTGG),1.07
6,GGTTCATCATGGACCGGTTTTCCCGGTAATCCGTATTTGCT (site CGATCATCTAG),0
7,GGTTCATCATGGACCGGTTTTCCCGGTAATCCGTATTTGCT (site GGTTCATCTAG),1.84
8,GGTTGTCCATGGACCGGTTTTCCCGGTAATCCGTATTTGGC (site GGTTGTCCTGC),0
9,GGTTTGGCATGGACCGGTTTTCCCGGTAATCCGTATTTGCT (site AGTTTGGCTAG),0.702
10,GGTTTGGCATGGACCGGTTTTCCCGGTAATCCGTATTTGCT (site CGTTTGGCTAG),0
11,GGTTTGGCATGGACCGGTTTTCCCGGTAATCCGTATTTGCT (site GGTTTGGCTAG),0
12,GGTTTGGCATGGACCGGTTTTCCCGGTAATCCGTATTTGCT (site TGTTTGGCTAG),0.00406
13,GTAAACGCATGGACCGGTTTTCCCGGTAATCCGTATTTGTT (site GTAAACGCTAA),2.59
14,GTAACGCCATGGACCGGTTTTCCCGGTAATCCGTATTTGGT (site GTAACGCCTAC),0.517
15,GTAAGTACATGGACCGGTTTTCCCGGTAATCCGTATTTGAC (site GTAAGTACTGT),2.96
16,GTAAGTACATGGACCGGTTTTCCCGGTAATCCGTATTTGAC (site GTACGTACTGT),0
17,GTAAGTACATGGACCGGTTTTCCCGGTAATCCGTATTTGAC (site GTAGGTACTGT),0.255
18,GTAAGTACATGGACCGGTTTTCCCGGTAATCCGTATTTGAC (site GTATGTACTGT),0.67
19,GTAATATCATGGACCGGTTTTCCCGGTAATCCGTATTTGCA (site GTAATATCTTG),2.6
20,GTAATCACATGGACCGGTTTTCCCGGTAATCCGTATTTGCG (site GTAATCACTCG),2.48
21,GTACGAGCATGGACCGGTTTTCCCGGTAATCCGTATTTGCA (site GTACGAGCTTG),2.55
22,GTACGAGCATGGACCGGTTTTCCCGGTAATCCGTATTTGCA (site GTCCGAGCTTG),0.87
